Results as given in PubChem BioAssay (NCI).
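Each compound was tested at five concentrations against cells in 96-well plates for 48 hours. TGI: total growth inhibition.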

Tests used:
Experiment in all cases: growth of human tumour cells (NCI), 48 h
[1] = system: 786-0 renal
[2] = system: A549 NSCLC
[3] = system: ACHN renal
[4] = system: BT-549 breast
[5] = system: CAKI-1 renal
[6] = system: CCRF-CEM leukemia
[7] = system: COLO 205 colon
[8] = system: DU-145 prostate
[9] = system: EKVX NSCLC
[10] = system: HCT-116 colon
[11] = system: HCT-15 colon
[12] = system: HL-60(TB) leukemia
[13] = system: HOP-62 NSCLC
[14] = system: HOP-92 NSCLC
[15] = system: HS 578T breast
[16] = system: HT29 colon
[17] = system: IGROV1 ovarian
[18] = system: K-562 leukemia
[19] = system: KM12 colon
[20] = system: LOX IMVI melanoma
[21] = system: M14 melanoma
[22] = system: MALME-3M melanoma
[23] = system: MDA-MB-231 breast
[24] = system: MDA-MB-435
[25] = system: MDA-N
[26] = system: MOLT-4 leukemia
[27] = system: NCI-H226 lung
[28] = system: NCI-H23 lung
[29] = system: NCI-H460 lung
[30] = system: NCI-H522 lung
[31] = system: NCI/ADR-RES ovarian
[32] = system: OVCAR-3 ovarian
[33] = system: OVCAR-4 ovarian
[34] = system: OVCAR-5 ovarian
[35] = system: OVCAR-8 ovarian
[36] = system: PC-3 prostate
[37] = system: RXF 393 renal
[38] = system: SF-268 CNS
[39] = system: SF-295 CNS
[40] = system: SF-539 CNS
[41] = system: SK-MEL-2 melanoma
[42] = system: SK-MEL-28 melanoma
[43] = system: SK-MEL-5 melanoma
[44] = system: SK-OV-3 ovarian
[45] = system: SN12C renal
[46] = system: SNB-19 CNS
[47] = system: SNB-75 CNS
[48] = system: SW-620 colon
[49] = system: T-47D breast
[50] = system: TK-10 renal
[51] = system: U251 CNS
[52] = system: UACC-257 melanoma
[53] = system: UACC-62 melanoma
[54] = system: UO-31 renal
[55] = system: A498 renal
[56] = system: HCC-2998 colon
[57] = system: MCF7 breast
[58] = system: RPMI-8226 leukemia
[59] = system: SR leukemia

O=S(=O)(/N=C(\NO)Nc1ccc(Cl)cc1)c1cc2ccccc2o1
TGI [1]: 39.3 µM
TGI [2]: > 100 µM
TGI [3]: 46.1 µM
TGI [4]: 34.8 µM
TGI [5]: 36.7 µM
TGI [6]: 57.4 µM
TGI [7]: 51.1 µM
TGI [8]: > 100 µM
TGI [9]: 41.9 µM
TGI [10]: 24.8 µM
TGI [11]: 34.2 µM
TGI [12]: 37.5 µM
TGI [13]: 83 µM
TGI [14]: 29 µM
TGI [15]: 52.8 µM
TGI [16]: 47.2 µM
TGI [17]: 30.7 µM
TGI [18]: > 100 µM
TGI [19]: 33.5 µM
TGI [20]: 23.9 µM
TGI [21]: 49.6 µM
TGI [22]: 45.2 µM
TGI [23]: 40.9 µM
TGI [24]: 29.7 µM
TGI [25]: 59.6 µM
TGI [26]: > 100 µM
TGI [27]: 71.7 µM
TGI [28]: 48 µM
TGI [29]: > 100 µM
TGI [30]: 25.7 µM
TGI [31]: 55.1 µM
TGI [32]: 28.5 µM
TGI [33]: 56 µM
TGI [34]: 57.2 µM
TGI [35]: 39.8 µM
TGI [36]: 69 µM
TGI [37]: 95 µM
TGI [38]: 55.7 µM
TGI [39]: 47 µM
TGI [40]: > 100 µM
TGI [41]: 35.9 µM
TGI [42]: 35 µM
TGI [43]: 30.9 µM
TGI [44]: 62.3 µM
TGI [45]: 36.1 µM
TGI [46]: > 100 µM
TGI [47]: > 100 µM
TGI [48]: 65.1 µM
TGI [49]: > 100 µM
TGI [50]: > 100 µM
TGI [51]: 33.4 µM
TGI [52]: 51.7 µM
TGI [53]: 29.3 µM
TGI [54]: 91.2 µM

C[C@]12CC[C@@H]3c4ccc(OS(N)(=O)=O)cc4CC[C@H]3[C@@H]1CCC2=O
TGI [1]: > 100 µM
TGI [55]: > 100 µM
TGI [2]: > 100 µM
TGI [3]: > 100 µM
TGI [4]: > 100 µM
TGI [5]: > 100 µM
TGI [6]: > 100 µM
TGI [7]: > 100 µM
TGI [8]: > 100 µM
TGI [9]: > 100 µM
TGI [56]: > 100 µM
TGI [10]: > 100 µM
TGI [11]: > 100 µM
TGI [12]: > 100 µM
TGI [13]: > 100 µM
TGI [14]: > 100 µM
TGI [15]: > 100 µM
TGI [16]: > 100 µM
TGI [17]: > 100 µM
TGI [18]: > 100 µM
TGI [19]: > 100 µM
TGI [20]: > 100 µM
TGI [21]: > 100 µM
TGI [22]: > 100 µM
TGI [57]: > 100 µM
TGI [23]: > 100 µM
TGI [24]: > 100 µM
TGI [25]: > 100 µM
TGI [27]: > 100 µM
TGI [28]: > 100 µM
TGI [29]: > 100 µM
TGI [31]: > 100 µM
TGI [32]: > 100 µM
TGI [33]: > 100 µM
TGI [34]: > 100 µM
TGI [35]: > 100 µM
TGI [58]: > 100 µM
TGI [37]: > 100 µM
TGI [38]: > 100 µM
TGI [39]: > 100 µM
TGI [40]: > 100 µM
TGI [41]: > 100 µM
TGI [42]: > 100 µM
TGI [43]: 38.8 µM
TGI [44]: > 100 µM
TGI [45]: > 100 µM
TGI [46]: > 100 µM
TGI [47]: > 100 µM
TGI [48]: > 100 µM
TGI [49]: > 100 µM
TGI [50]: > 100 µM
TGI [51]: > 100 µM
TGI [52]: > 100 µM
TGI [53]: > 100 µM
TGI [54]: > 100 µM

COc1cc(C2CC(C)(N3CCCC3)Oc3cc4c(cc32)OCO4)cc(OC)c1OC (stereo unspecified)
TGI [1]: 17 µM
TGI [55]: 6.12 µM
TGI [2]: > 100 µM
TGI [3]: > 100 µM
TGI [4]: 87.7 µM
TGI [5]: > 100 µM
TGI [6]: > 100 µM
TGI [7]: > 100 µM
TGI [8]: > 100 µM
TGI [9]: > 100 µM
TGI [56]: 6.14 µM
TGI [10]: > 100 µM
TGI [13]: > 100 µM
TGI [14]: > 100 µM
TGI [15]: > 100 µM
TGI [16]: 0.492 µM
TGI [17]: > 51.2 µM
TGI [18]: 10.9 µM
TGI [19]: > 100 µM
TGI [20]: 15 µM
TGI [21]: > 100 µM
TGI [22]: > 50.7 µM
TGI [57]: 17.9 µM
TGI [23]: 21.9 µM
TGI [25]: 0.0552 µM
TGI [26]: > 49.3 µM
TGI [27]: > 82.4 µM
TGI [28]: > 49.6 µM
TGI [29]: 3.5 µM
TGI [30]: 2.19 µM
TGI [31]: > 100 µM
TGI [32]: 45 µM
TGI [33]: > 100 µM
TGI [34]: > 100 µM
TGI [35]: > 44.7 µM
TGI [36]: 3.55 µM
TGI [37]: 0.468 µM
TGI [38]: > 87.6 µM
TGI [39]: 0.0909 µM
TGI [40]: 0.603 µM
TGI [41]: > 100 µM
TGI [42]: 73.8 µM
TGI [45]: 43.7 µM
TGI [46]: > 100 µM
TGI [59]: > 100 µM
TGI [48]: 39 µM
TGI [49]: > 100 µM
TGI [50]: > 64 µM
TGI [51]: 16.4 µM
TGI [52]: 32.5 µM
TGI [54]: > 100 µM

COC(=O)c1ccccc1C1CN=NC12Cc1c(C)cccc1C2=O (stereo unspecified)
TGI [1]: > 100 µM
TGI [55]: > 100 µM
TGI [2]: > 100 µM
TGI [3]: > 100 µM
TGI [4]: > 100 µM
TGI [5]: > 100 µM
TGI [6]: > 100 µM
TGI [7]: > 100 µM
TGI [8]: > 100 µM
TGI [9]: > 100 µM
TGI [56]: > 100 µM
TGI [10]: > 100 µM
TGI [11]: > 100 µM
TGI [12]: > 100 µM
TGI [13]: > 100 µM
TGI [14]: > 100 µM
TGI [15]: > 100 µM
TGI [16]: > 100 µM
TGI [17]: > 100 µM
TGI [18]: > 100 µM
TGI [19]: > 100 µM
TGI [20]: > 100 µM
TGI [21]: > 100 µM
TGI [22]: > 100 µM
TGI [57]: > 100 µM
TGI [23]: > 100 µM
TGI [24]: > 100 µM
TGI [25]: > 100 µM
TGI [26]: > 100 µM
TGI [27]: > 100 µM
TGI [28]: > 100 µM
TGI [29]: > 100 µM
TGI [30]: > 100 µM
TGI [31]: > 100 µM
TGI [32]: > 100 µM
TGI [33]: > 100 µM
TGI [34]: > 100 µM
TGI [35]: > 100 µM
TGI [58]: > 100 µM
TGI [37]: > 100 µM
TGI [38]: > 100 µM
TGI [39]: > 100 µM
TGI [40]: > 100 µM
TGI [41]: > 100 µM
TGI [42]: > 100 µM
TGI [43]: > 100 µM
TGI [44]: > 100 µM
TGI [45]: > 100 µM
TGI [46]: > 100 µM
TGI [47]: > 100 µM
TGI [59]: > 100 µM
TGI [48]: > 100 µM
TGI [49]: > 100 µM
TGI [50]: > 100 µM
TGI [51]: > 100 µM
TGI [52]: > 100 µM
TGI [53]: > 100 µM
TGI [54]: > 100 µM

CC(=O)CC1(O)C(=O)c2c(Br)sc(Br)c2C1=O
TGI [1]: 57.6 µM
TGI [55]: > 100 µM
TGI [2]: > 100 µM
TGI [3]: > 100 µM
TGI [4]: 35.8 µM
TGI [5]: 32.1 µM
TGI [6]: 43 µM
TGI [7]: 36.9 µM
TGI [8]: > 100 µM
TGI [9]: 55.8 µM
TGI [56]: 32.7 µM
TGI [10]: 35.8 µM
TGI [11]: 45.7 µM
TGI [12]: 50.5 µM
TGI [13]: 79.4 µM
TGI [14]: 34.7 µM
TGI [15]: 95 µM
TGI [16]: 53.8 µM
TGI [17]: 35.9 µM
TGI [18]: 91 µM
TGI [19]: > 100 µM
TGI [20]: 35 µM
TGI [21]: 33.1 µM
TGI [22]: 33.2 µM
TGI [57]: > 100 µM
TGI [24]: 43.6 µM
TGI [25]: 45.9 µM
TGI [26]: > 100 µM
TGI [27]: > 100 µM
TGI [28]: 39.2 µM
TGI [29]: > 100 µM
TGI [30]: 36.4 µM
TGI [31]: > 100 µM
TGI [32]: 31.7 µM
TGI [33]: 36.4 µM
TGI [34]: 33.9 µM
TGI [35]: 48 µM
TGI [36]: 45.4 µM
TGI [58]: > 100 µM
TGI [37]: 51.7 µM
TGI [38]: 82.4 µM
TGI [39]: > 100 µM
TGI [40]: 49.3 µM
TGI [41]: 46.7 µM
TGI [42]: 46 µM
TGI [43]: 34.2 µM
TGI [44]: > 100 µM
TGI [45]: 35.4 µM
TGI [46]: > 100 µM
TGI [47]: > 100 µM
TGI [59]: 49.9 µM
TGI [48]: 55.6 µM
TGI [49]: 83.9 µM
TGI [50]: 56.8 µM
TGI [51]: 53.5 µM
TGI [52]: 41.4 µM
TGI [53]: 46 µM
TGI [54]: 50.7 µM
